{"source": "ChEMBL document CHEMBL3885881", "about": "“DrugMatrix”", "species": "Rattus norvegicus", "type": "toxicity, organism-based, Sprague-Dawley", "details": "in vivo, 0 mg/kg, 24 h, dose level Control, time 1 day, vehicle 100 % SALINE", "key": {"[1]": {"details": "sc, tissue Blood, route mini-PUMP - SUBCUTANEOUS"}, "[2]": {"details": "sc, tissue Plasma, route mini-PUMP - SUBCUTANEOUS"}, "[3]": {"details": "iv, vehicle control, tissue Blood"}, "[4]": {"details": "iv, vehicle control, tissue Plasma"}}, "description": "DrugMatrix - Regimen: Single"}
{"smiles": "CNC[C@H](O)c1ccc(O)c(O)c1", "note": "[EPINEPHRINE]", "values": [{"measurement": "ABSOLUTE EOSINOPHIL", "setting": "[1]", "value": 26.17, "unit": "CELLS/uL"}, {"measurement": "ABSOLUTE LYMPHOCYTE", "setting": "[1]", "value": 10985.83, "unit": "CELLS/uL"}, {"measurement": "ABSOLUTE MONOCYTE", "setting": "[1]", "value": 234.5, "unit": "CELLS/uL"}, {"measurement": "ABSOLUTE SEGMENTED NEUTROPHIL", "setting": "[1]", "value": 1753.5, "unit": "CELLS/uL"}, {"measurement": "BASOPHIL", "setting": "[1]", "value": 0, "unit": "%"}, {"measurement": "EOSINOPHIL", "setting": "[1]", "value": 0.17, "unit": "%"}, {"measurement": "ERYTHROCYTE COUNT", "setting": "[1]", "value": 5.64, "unit": "x10E6/uL"}, {"measurement": "HEMOGLOBIN", "setting": "[1]", "value": 12.68, "unit": "G/DL"}, {"measurement": "LEUKOCYTE COUNT", "setting": "[1]", "value": 13, "unit": "x10E3/uL"}, {"measurement": "LYMPHOCYTE", "setting": "[1]", "value": 84.5, "unit": "%"}, {"measurement": "MEAN CORPUSCULAR HEMOGLOBIN", "setting": "[1]", "value": 22.5, "unit": "pg"}, {"measurement": "MEAN CORPUSCULAR HEMOGLOBIN CONCENTRATION", "setting": "[1]", "value": 36.78, "unit": "G/DL"}, {"measurement": "MEAN CORPUSCULAR VOLUME", "setting": "[1]", "value": 61.18, "unit": "fL"}, {"measurement": "NEUTROPHIL", "setting": "[1]", "value": 13.5, "unit": "%"}, {"measurement": "NUCLEATED RED BLOOD CELLS", "setting": "[1]", "value": "0.17 /100WBC"}, {"measurement": "PLATELET COUNT", "setting": "[1]", "value": 679.17, "unit": "x10E3/uL"}, {"measurement": "ALANINE AMINOTRANSFERASE", "setting": "[2]", "value": 42.67, "unit": "u/L"}, {"measurement": "ALBUMIN", "setting": "[2]", "value": 3.77, "unit": "G/DL"}, {"measurement": "ALKALINE PHOSPHATASE", "setting": "[2]", "value": 291.17, "unit": "u/L"}, {"measurement": "ASPARTATE AMINOTRANSFERASE", "setting": "[2]", "value": 74.5, "unit": "u/L"}, {"measurement": "BLOOD UREA NITROGEN", "setting": "[2]", "value": 15.33, "unit": "mg/dL"}, {"measurement": "CARBON DIOXIDE", "setting": "[2]", "value": 30, "unit": "mmol/L"}, {"measurement": "CHLORIDE", "setting": "[2]", "value": 100.83, "unit": "MEQ/L"}, {"measurement": "CHOLESTEROL", "setting": "[2]", "value": 65.33, "unit": "mg/dL"}, {"measurement": "CREATININE", "setting": "[2]", "value": 0.15, "unit": "mg/dL"}, {"measurement": "LACTATE DEHYDROGENASE", "setting": "[2]", "value": 162.67, "unit": "u/L"}, {"measurement": "LIPASE", "setting": "[2]", "value": 8.5, "unit": "u/L"}, {"measurement": "PHOSPHORUS", "setting": "[2]", "value": 12.2, "unit": "mg/dL"}, {"measurement": "POTASSIUM", "setting": "[2]", "value": 5.73, "unit": "MEQ/L"}, {"measurement": "SODIUM", "setting": "[2]", "value": 144.7, "unit": "MEQ/L"}, {"measurement": "TOTAL BILIRUBIN", "setting": "[2]", "value": 0.15, "unit": "mg/dL"}, {"measurement": "TOTAL PROTEIN", "setting": "[2]", "value": 5.87, "unit": "G/DL"}, {"measurement": "URIC ACID", "setting": "[2]", "value": 1.93, "unit": "mg/dL"}]}
{"smiles": "CC(=O)[C@]1(O)Cc2c(O)c3c(c(O)c2[C@@H](O[C@H]2C[C@H](N)[C@H](O)[C@H](C)O2)C1)C(=O)c1ccccc1C3=O", "note": "[IDARUBICIN]", "values": [{"measurement": "ABSOLUTE BASOPHIL", "setting": "[3]", "value": 280, "unit": "cells/µL"}, {"measurement": "ABSOLUTE EOSINOPHIL", "setting": "[3]", "value": 75, "unit": "cells/µL"}, {"measurement": "ABSOLUTE LYMPHOCYTE", "setting": "[3]", "value": 9060, "unit": "cells/µL"}, {"measurement": "ABSOLUTE MONOCYTE", "setting": "[3]", "value": 260, "unit": "cells/µL"}, {"measurement": "BASOPHIL", "setting": "[3]", "value": 2.17, "unit": "%"}, {"measurement": "EOSINOPHIL", "setting": "[3]", "value": 0.62, "unit": "%"}, {"measurement": "ERYTHROCYTE COUNT", "setting": "[3]", "value": 6.64, "unit": "x10E6/uL"}, {"measurement": "HEMATOCRIT", "setting": "[3]", "value": 42.6, "unit": "%"}, {"measurement": "HEMOGLOBIN", "setting": "[3]", "value": 13.5, "unit": "G/DL"}, {"measurement": "LEUKOCYTE COUNT", "setting": "[3]", "value": 11.87, "unit": "x10E3/uL"}, {"measurement": "LYMPHOCYTE", "setting": "[3]", "value": 76.3, "unit": "%"}, {"measurement": "MEAN CORPUSCULAR HEMOGLOBIN", "setting": "[3]", "value": 20.37, "unit": "pg"}, {"measurement": "MEAN CORPUSCULAR HEMOGLOBIN CONCENTRATION", "setting": "[3]", "value": 31.75, "unit": "G/DL"}, {"measurement": "MEAN CORPUSCULAR VOLUME", "setting": "[3]", "value": 64.17, "unit": "fL"}, {"measurement": "MONOCYTE", "setting": "[3]", "value": 2.1, "unit": "%"}, {"measurement": "NEUTROPHIL", "setting": "[3]", "value": 16.75, "unit": "%"}, {"measurement": "PLATELET COUNT", "setting": "[3]", "value": 1144.5, "unit": "x10E3/uL"}, {"measurement": "ALANINE AMINOTRANSFERASE", "setting": "[4]", "value": 42.75, "unit": "u/L"}, {"measurement": "ALBUMIN", "setting": "[4]", "value": 3.6, "unit": "G/DL"}, {"measurement": "ALKALINE PHOSPHATASE", "setting": "[4]", "value": 314.75, "unit": "u/L"}, {"measurement": "ASPARTATE AMINOTRANSFERASE", "setting": "[4]", "value": 66.5, "unit": "u/L"}, {"measurement": "BLOOD UREA NITROGEN", "setting": "[4]", "value": 14, "unit": "mg/dL"}, {"measurement": "CARBON DIOXIDE", "setting": "[4]", "value": 37.5, "unit": "mmol/L"}, {"measurement": "CHLORIDE", "setting": "[4]", "value": 108, "unit": "MEQ/L"}, {"measurement": "CHOLESTEROL", "setting": "[4]", "value": 74.25, "unit": "mg/dL"}, {"measurement": "CREATINE PHOSPHOKINASE", "setting": "[4]", "value": 271, "unit": "u/L"}, {"measurement": "CREATININE", "setting": "[4]", "value": 0.65, "unit": "mg/dL"}, {"measurement": "GLUCOSE", "setting": "[4]", "value": 171, "unit": "mg/dL"}, {"measurement": "LACTATE DEHYDROGENASE", "setting": "[4]", "value": 125.75, "unit": "u/L"}, {"measurement": "LIPASE", "setting": "[4]", "value": 27.5, "unit": "u/L"}, {"measurement": "PHOSPHORUS", "setting": "[4]", "value": 11.25, "unit": "mg/dL"}, {"measurement": "POTASSIUM", "setting": "[4]", "value": 6.72, "unit": "MEQ/L"}, {"measurement": "SODIUM", "setting": "[4]", "value": 153.5, "unit": "MEQ/L"}, {"measurement": "TOTAL BILIRUBIN", "setting": "[4]", "value": 0.23, "unit": "mg/dL"}, {"measurement": "TOTAL PROTEIN", "setting": "[4]", "value": 6.2, "unit": "G/DL"}, {"measurement": "URIC ACID", "setting": "[4]", "value": 0.85, "unit": "mg/dL"}]}
